From paper PMC4109680, “Identification and Preclinical Pharmacology of the γ-Secretase Modulator BMS-869780” (International Journal of Alzheimer's Disease, 2014)

How the values were obtained:
Type in all cases: cell-based, human
Aβ1-40 (H4-APPsw) = assay: Aβ1-40 time-resolved fluorescence immunoassay in H4-APPsw cell cultures; settings: for IC50: Homo sapiens, H4-APPsw cultures treated overnight
Description: (§1) H4-APPsw cell cultures were maintained on Dulbecco's modified Eagle's medium (DMEM) supplemented with L-glutamine (2 mM), fetal bovine serum (10%), and G418 (100 μg/mL). […] Aβ1-42 and Aβ1-40 assays, and Notch inhibition assays, were carried out as described previously. Mouse embryonic fibroblasts deficient in PS1 and PS2 (MEF dKO) were passaged twice per week in DMEM/F-12 medium, consisting of a 1 : 1 mixture of DMEM and F-12 nutrient mixture supplemented with 10% fetal bovine serum, penicillin, and streptomycin. For expression of human presenilin-1 in MEF dKO cells, the full length human presenilin-1 cDNA open reading frame was cloned between the BamHI and XhoI sites of the vector pcDNA5/FRT (Invitrogen), placing presenilin-1 expression under the control of the CMV promoter. The M146V mutated allele was introduced into the presenilin-1 expression construct by polymerase chain reaction using the oligonucleotide primers 5′-[…]-3′ and 5′-[…]-3 (QuikChange kit, Invitrogen). MEF dKO cultures were cotransfected with DNA constructs expressing APP-CTF, encoding the C-terminal 99 amino acids of APP [61] and either the human presenilin-1 or presenilin-1 M146V allele. Transfected cultures were incubated overnight at 37°C in 5% CO2 atmosphere and then harvested, resuspended in DMEM/F-12 medium, dispensed into 96-well culture plates, and incubated for 6 hours at 37°C in 5% CO2 atmosphere. Culture medium was then replaced with Ultraculture serum free medium (Lonza, Rockland, ME) with or without compounds at a range of concentrations and incubated overnight.
(§2) IC50 determinations for Aβ1-42 and Aβ1-40 in H4-APPsw cultures in 384-well format were determined using homogeneous time-resolved fluorescence immunoassays as previously described. The principle of these assays is illustrated in Figures 1(c) and 1(d). In other experiments using H4-APPsw cultures, Aβ was quantified by ELISA; for Aβ1-42 the combination of monoclonal antibodies was 26D6 and 565-HRP; for Aβ1-40 it was TSD and 26D6-HRP, and for Aβ1-x it was 4G8 and 26D6-HRP. In some experiments a novel 4-plex Aβ electrochemiluminescence immunoassay was used (Mesoscale Discovery catalog number N45ZA-1). Briefly, the 4-plex was carried out in 96-well format, with 4 separate spots of capture antibodies in each well. […] For Aβ in transiently transfected PS1/PS2 dKO fibroblasts, Aβ1-42 was quantified using an ELISA kit (WACO), and Aβ1-40 was quantified by ELISA as described above for H4-APPsw cultures. […] For the rat and mouse experiments illustrated in Figures 7 and 8, brain samples were prepared by solid phase extraction, and endogenous rat brain Aβ1-42 and Aβ1-40 were quantified by ELISA as previously described for wild type mice. […]

Aβ1-42 (H4-APPsw) = assay: Aβ1-42 time-resolved fluorescence immunoassay in H4-APPsw cell cultures; settings: H4-APPsw cultures treated overnight
Description: as §1, §2

APP-CTF (H4-APPsw) = assay: Western blot of APP-CTFα and APP-CTFβ in H4-APPsw cell lysates; settings: overnight; for increase in APP-CTFα: BMS-869780 100-3000 nM averaged across doses, BMS-299897 30-300 nM; for APP-CTFβ levels: high concentrations
Description: For western blotting of APP-CTF in cell lysates, H4-APPsw cell cultures in T-75 flasks were rinsed with DPBS, harvested, isolated by centrifugation, and stored at −80°C until needed. Cells were suspended in SDS sample buffer (20,000 cells/μL), boiled for 10 min, and centrifuged 3000 ×g for 5 min. Total protein content was determined using an assay kit (EZQ, Invitrogen cat number R33200). Proteins were separated by electrophoresis on Bis-Tris 16% polyacrylamide gels and transferred to nitrocellulose filters. APP-CTFβ was detected using 26D6-HRP, and APP-CTFα was detected using ct695 polyclonal (Invitrogen, cat number 51-2700) and secondary goat anti-rabbit horseradish peroxidase conjugate (Zymed, catalog number 62-6120). Chemiluminescence images were captured and quantified using an imaging station (Fuji model number LAS-3000). The ct695 western blots also show APP-CTFβ, which migrates as a fainter band above APP-CTFα under these conditions. To confirm the consistency of sample loading, the APP-CTF western blots were reprobed for glyceraldehyde-3-phosphate dehydrogenase (GAPDH) using monoclonal 1D4 (Enzo Life Sciences, cat number CSA-335).
Figure 4 BMS-869780 had minimal effect on APP-CTF accumulation in vitro. H4-APPsw cell cultures were treated overnight with the indicated concentrations of BMS-869780, BMS-299897 or vehicle (0.1% DMSO). (a) Cells were harvested and analyzed by western blotting for APP-CTFα, APP-CTFβ, and GAPDH. Lane 1; culture treated with vehicle 0.1% DMSO. Lanes 2–5; cultures treated with BMS-869780 at 100 nM, 300 nM, 1000 nM, or 3000 nM, respectively. Lanes 6–8; cultures treated with BMS-299897 at 30 nM, 100 nM, or 300 nM, respectively. (b) Levels of Aβ1-42 (red; left Y-axis), Aβ1-40 (green; right Y-axis), and Aβ1-x (grey; right Y-axis) were quantified.

| SMILES | IC50 (Aβ1-40 (H4-APPsw)) [nM] | IC50 (Aβ1-42 (H4-APPsw); Homo sapiens) [nM] | increase in APP-CTFα (APP-CTF (H4-APPsw)) [fold] | APP-CTFβ levels (APP-CTF (H4-APPsw)) | shift in IC50 values between Aβ1-42 and Aβ1-40 (Aβ1-40 (H4-APPsw); H4-APPsw) [fold] | IC50 (Aβ1-42 (H4-APPsw)) [nM] |
| --- | --- | --- | --- | --- | --- | --- |
| C[C@H](c1ccc(F)cc1CCCC(=O)O)N(c1cc(F)ccc1F)S(=O)(=O)c1ccc(Cl)cc1 [BMS-299897, reference compound] | 1.3 | 0.47 | 8 | not affected |  |  |
| COc1cc(Nc2nc3n(n2)CCCC[C@H]3c2ccc(F)cc2)ccc1-n1cnc(Cl)c1 [BMS-869780] | 24.1 | 5.6 | 1.4 | not affected | 4 | 5.1 |
